pIC50: −log10 of the molar value. Where two headings read alike, the source gives them in different places. One block for each molecule: values may come before it.
Key:
[1] = humans receiving the usual oral dose; stated by Reviewer 1, no reference; cited from earlier work
[2] = Plasma pharmacokinetics of immediate release and gastric resident dosage forms in pigs; type: in vivo, Yorkshire pigs; conditions: for Tmax: female, Yorkshire, pig, plasma, oral, post-dose, read-out: time of maximum plasma concentration (converted); for duration of sustained drug concentrations: single dose
Description: All animal experiments were approved by the Committee on Animal Care at the Massachusetts Institute of Technology. In vivo pharmacokinetics were evaluated in an unblinded fashion in female Yorkshire pigs (50–95 kg) that were randomly assigned to the immediate release or sustained release groups. Animals were fed daily in the morning and in the evening with a diet consisting of pellets (Laboratory mini-pig growler diet, 5081), with a midday snack consisting of various fruits and vegetables. Specifically, the pellets were 5/32” x ¼” length, and consisted of ground oats, alfalfa meal, wheat middlings, soybean meal, dried beet pulp, salts and other micronutrients.
To determine the oral pharmacokinetics of immediate release dosage forms of DTG and CAB, 50 mg of DTG and 30 mg of CAB were weighed and filled into gelatine capsules. For RPV pharmacokinetics, RPV base was dissolved in poly(ethylene glycol) (molecular weight—400 Da) containing 10-fold molar excess of citric acid. The concentration of RPV base in this solution was 5 mg/mL and 5 mL of the solution was dosed in a gelatine capsule. […] To determine oral pharmacokinetics from gastric retentive dosage forms, the arms of dosage forms (2–3/pig containing 350 mg DTG, 175 mg RPV or 210 mg CAB) were folded into capsule shells immediately prior to dosing. […]. The capsules containing drug or dosage form were delivered into the intestine or stomach respectively. At various time points, blood samples (0.5 mL) were collected from a central line connected to the external jugular vein or from a mammary vein into […] Vacutainer gold top tubes (Becton, Dickinson and Co. USA). Plasma samples were separated from blood by centrifugation (1800g, 10 min at 4 °C) and were stored at −80 °C. Atropine can reduce gastric acid production and gastric motility which may affect the overall drug pharmacokinetics and the gastric retention of the dosage form. […]. Drug concentrations in the plasma were analysed using UPLC-MS/MS. Plasma samples (100 µL) were spiked with 200 µL acetonitrile solution of 250 µg/mL maraviroc (internal standard) to cause precipitation. Samples were vortexed and sonicated for 10–20 min and then centrifuged (21130g, 10 min). Two hundred microliters of solution were pipetted into a 96-well plate containing 200 µL of nanopure water. Finally, 2.5 μL was injected onto the UPLC–ESI–MS system for analysis.
UPLC separation was carried out on a Waters® UPLC aligned with a Waters® Xevo–TQ-SMS mass spectrometer (Waters Ltd., UK). MassLynx® 4.1 software was used for data acquisition and analysis. Liquid chromatography separation was performed on an Acquity® UPLC CSH C18 (50 × 2.1 mm, 1.7 μm particle size) column at 50 °C. The mobile phase consisted of acetonitrile spiked with 0.1% formic acid and 10 mM ammonium formate solution. The mobile phase was flowed at a rate of 0.6 mL/min using a time and solvent gradient composition. The initial composition (100% aqueous) was held for 1 min, following which the composition was changed linearly to 20% organic phase over the next 0.25 min. The composition was then brought to 100% organic over 1.25 min, held for 0.5 min and finally shifted to the initial composition and held constant until the end of the run for column equilibration. The total run time was 4 min and sample injection volume was 2.5 μL. The mass spectrometer was operated in the multiple reaction monitoring (MRM) mode. Sample introduction and ionization was by electrospray ionization (ESI) in the positive ion mode. DTG, RPV and CAB were analysed at mass-to-charge ratios of […] respectively. Stock solutions of DTG, RPV, CAB, and an internal standard maraviroc were prepared in methanol at a concentration of 500 μg/mL. A ten-point calibration curve was prepared ranging from 2.5–5000 ng/mL. Quality control samples were prepared in a similar procedure using an independent stock solution at three concentrations (5, 50 and 500 ng/mL). […]

[3] = Drug stability in simulated gastric fluid (SGF), HPLC; conditions: for stability in SGF: SGF pH ~1.2, 37 °C, 24 h, salt forms
Description: To determine drug stability at low pH, the drugs were dissolved in methanol to form a concentrated stock solution. Methanol solutions were then diluted 20-fold in simulated gastric fluid, USP without pepsin (pH ~1.2; henceforth referred to as SGF). Drug solutions were then placed in a shaker incubator (New Brunswick™ Innova® 44, Eppendorf, USA) at 37 °C and 150 r.p.m. At various times, aliquots were withdrawn and stored at −20 °C until analysis. Drug concentrations in the solution were analysed using HPLC and reported as percent of the initial concentrations.
The output signal was monitored and processed using ChemStation® software (Agilent Technologies Inc., USA). Chromatographic separation was carried out on a 50 mm × 4.6 mm EC-C18 Agilent Poroshell 120 analytical column with 2.7 µm spherical particles.
The injection volume was 5 µL, and the UV detection wavelength of 260 nm was selected.
For RPV, the stationary phase was maintained at 40 °C. The mobile phase consisted of methanol: water (pH 3.5 adjusted with 0.1% formic acid) (43:57 v/v) at a flow rate of 0.9 mL/min over a 10 min run time. The injection volume was 20 µL, and the UV detector was set at 290 nm.
For CAB, the column was maintained at 45 °C and the optimized mobile phase consisted of acetonitrile: water (pH 3.5 adjusted with 0.1% formic acid) (30:70 v/v) at flow rate of 0.8 mL/min over an 8 min run time. For analysis, 5 µL of the sample was injected on to the column, and the samples were analysed at a wavelength of 260 nm.
For tenofovir alafenamide, the column was maintained at 22 °C. The mobile phase consisted initially of acetonitrile: water (pH 3.5 adjusted with 0.1% formic acid) (100:0 v/v). […] The flow rate was 0.6 mL/min and the run time was 8 min. The injection volume was 10 µL, and the UV detection wavelength of 260 nm was selected.

[4] = Drug stability at high temperature (150 °C, 2 h), HPLC; type: physicochemical; conditions: 150 °C for 2 h
Description: To determine the drug stability at high temperatures, the drug was weighed in a 20 mL glass vial, and placed in a convection oven at 150 °C for 2 h. Drug was dissolved in methanol, and the concentration was compared to that of an unheated standard of the same initial concentration via HPLC.

[5] = pig, in vivo, po; cited from earlier work
[6] = system: HIV reference strain NL4-3; parameters: method as in ref 46,55–57 (a number printed in a supplementary file, which may have a reference list of its own: not looked up in the article's list); conditions: wild-type virus; cited from earlier work
[7] = parameters: method as in ref 58 (a number printed in a supplementary file, which may have a reference list of its own: not looked up in the article's list); conditions: cited from earlier work
[8] = system: drug-resistant HIV strains; conditions: cited from earlier work
[9] = immediate release formulation, pigs
[10] = immediate release formulation, pigs, n = 3

Tmax [2, 9]: 6 h | average peak plasma concentration, fold lower than immediate release ([2]; gastric resident system vs immediate release, pigs): ~ 2.5 fold | average (sustained) plasma drug concentrations throughout the week following dosing ([2]; gastric resident system, pigs, n = 3): 200 to 500 ng/mL | duration of sustained drug concentrations ([2]; gastric resident system): up to 1 week | day at or after which no drug was detected in plasma [2, 9]: 3 days | time for which drug was detectable in plasma [2, 9]: up to 2 days | average maximum plasma concentration [2, 10]: ~1400 ng/mL | stability in SGF [3]: stable | stability at elevated temperature [4]: stable
Compound: C[C@H]1CO[C@@H]2Cn3cc(C(=O)NCc4ccc(F)cc4F)c(=O)c(O)c3C(=O)N12 [CAB, cabotegravir]
usual Cmax in humans [1]: 2800 ng/mL

Compound: CC(C)OC(=O)[C@H](C)N[P@](=O)(CO[C@H](C)Cn1cnc2c(N)ncnc21)Oc1ccccc1 [TAF, tenofovir alafenamide]
drug remaining stable ([3]; after 10 h of incubation in SGF, 37 °C): 10%

Compound: C[C@]12C=CC(=O)C=C1CC[C@@H]1[C@@H]2[C@@H](O)C[C@@]2(C)[C@H]1CC[C@]2(O)C(=O)CO [prednisolone]
concentrations achieved in pigs relative to those observed in humans [5]: about one tenth

Compound: Cc1cc(/C=C/C#N)cc(C)c1Nc1ccnc(Nc2ccc(C#N)cc2)n1 [RPV, rilpivirine]
pIC50 [6]: 6.98 | m (slope parameter of Hill curve) [6]: 1.83 | usual Cmax in humans [1]: 200 ng/mL | Tmax ([2]; 175 mg, gastric resident dosage form, pigs): 24 h | maintenance of plasma concentrations ([2]; gastric resident dosage form, pigs, entirety of the study): comparable to the Cmax were maintained for the entirety of the study | duration of sustained drug concentrations ([2]; gastric resident system): up to 1 week | time for plasma concentration to drop below the limit of detection [2, 9]: ≤ 2 days | average maximum plasma concentration [2, 10]: ~25 ng/mL | stability in SGF [3]: stable | Half-life, τ1/2 [7]: 50 h | Cmax ([7]; maximum plasma concentration at steady state, perfect adherence): 510 nM | Fold change in IC50 (ρ) ([8]; mutation E138K/M184I): 3.20 | Fold change in IC50 (ρ) ([8]; mutation E138K/M230L): 22.60 | Fold change in IC50 (ρ) ([8]; mutation E138K): 2.30 | Fold change in IC50 (ρ) ([8]; mutation K101E/E138K): 3.20 | Fold change in IC50 (ρ) ([8]; mutation K101E/M184I): 5.80 | Fold change in IC50 (ρ) ([8]; mutation K101E): 3.00 | Fold change in IC50 (ρ) ([8]; mutation K101P): 102.13 | Fractional change in slope (σ) ([8]; mutation K101P): -0.21 | Fold change in IC50 (ρ) ([8]; mutation K103N): 1.23 | Fractional change in slope (σ) ([8]; mutation K103N): 0.12 | Fold change in IC50 (ρ) ([8]; mutation M184I): 1.50 | Fold change in IC50 (ρ) ([8]; mutation M230L): 3.40 | Fold change in IC50 (ρ) ([8]; mutation Y181C/Y188L): 30.20 | Fold change in IC50 (ρ) ([8]; mutation Y181C): 1.72 | Fractional change in slope (σ) ([8]; mutation Y181C): -0.48 | Fold change in IC50 (ρ) ([8]; mutation Y181I): 152.91 | Fractional change in slope (σ) ([8]; mutation Y181I): -0.10 | Fold change in IC50 (ρ) ([8]; mutation Y181V): 31.00 | Fold change in IC50 (ρ) ([8]; mutation Y188L): 6.00 | stability at elevated temperature [4]: stable
